# Data as given in publication PMC5344539, “Nematode neuropeptides as transgenic nematicides” (PLoS Pathogens, 2017).
# Entries after “also recorded” stand apart in the source; their conditions may differ.
# Experiments:
# [1] = tested on: M. incognita J2s; assay: Tomato invasion assay with uNLP pre-treated J2s; format: in vivo, Meloidogyne incognita; details: for effect on host invasion (in words): 100 μM uNLP, 24 h, tomato cv. Moneymaker, relative to controls; for % Invasion: Fig 1B, 500 J2s incubated in 100 μM uNLP for 24 h, single tomato seedling, 24 h at 23°C, normalised to negative control = 100%, mean
# Procedure: (§1) Predicted uNLPs from both M. incognita and G. pallida were synthesised by EZBiolab and dissolved into pH adjusted ddH2O to make a 5 mM stock which was aliquoted and stored at -20°C. J2s of both M. incognita and G. pallida were incubated for 24 hours in 200 μl of each peptide in a 24 well plate (SPL Lifesciences, South Korea) at a defined concentration.
# (§2) Tomato seeds were sterilised with 2.5% NaOCl for 15 minutes, washed 5 times in ddH20 and germinated on 0.5% Murashige and Skoog plates at 23°C. […] Invasion assays were performed by mixing 500 pre-treated M. incognita or G. pallida J2s with agar slurry and a single tomato seedling (2 days post germination) in a 6 well plate. Assays were left at 23°C for 24 hours in the case of M. incognita and at 18°C for 24 hours in the case of G. pallida under a 16 hour light and 8 hour darkness cycle. Seedlings were stained using acid fuschin [69] and the number of nematodes within the roots counted. At least five seedlings were used for M. incognita infections assays, with at least 15 seedlings used for G. pallida infections assays (due to increased variation).
# [2] = tested on: M. incognita J2s; assay: Serotonin-induced stylet thrusting assay; format: in vivo, Meloidogyne incognita; details: for effect on serotonergic-induced stylet thrusting (in words): 100 μM uNLP, 24 h, 5 mM serotonin, relative to controls; for % Thrusting: Fig 1C, J2s incubated in 100 μM uNLP for 24 h, stylet thrusts in 5 mM serotonin, counted 1 min, normalised to control = 100%, mean, at least 30 J2s
# Procedure: as §1
# (§3) Stylet thrusting assays where performed by incubating 100 M. incognita or G. pallida J2s for 15 minute in 5 mM or 2 mM serotonin (Sigma Aldrich, USA), respectively. J2s were placed on a glass slide and stylet thrusts were counted for randomly selected J2s, for 1 minute each. Counts for a given cohort of J2s were taken in a maximum interval of 15 minutes. Longer counting intervals, making for longer serotonin incubations, yielded inconsistent results. At least 30 J2s were counted for each neuropeptide treatment.
# [3] = tested on: M. incognita J2s; assay: Chemosensory (chemotaxis) assay of uNLP pre-treated J2s towards tomato root exudate; format: in vivo, Meloidogyne incognita; details: for effect on chemosensation (in words): 100 μM uNLP, 24 h, relative to controls; for CI score: Fig 1A, J2s incubated in 100 μM uNLP for 24 h, tomato cv. Moneymaker root exudate vs water agar plugs, counted after 3 h, mean of 10 replicates of 100 J2s, control 0.4426
# Procedure: as §1
# (§4) A 60 mm Petri dish was divided into two segments, a positive and a negative side, with a 0.5 cm 'dead zone' either side of the centre point. The petri dish was filled with 15 ml of 0.25% w/v agar which was allowed to solidify. 3 ml of 0.25% w/v agar slurry in spring water (pH 7, agitated with a magnetic stirrer for several hours to give a smooth consistency) was added to the petri dish and spread evenly over the surface. Root diffusate (attractant) and water only (control) 0.25% agar plugs were embedded in the agar slurry, either side of the assay arena. Root diffusate was collected from 10 tomato plants, aged 3–6 weeks in 1 litre pots, by pouring 500 ml of ddH20 through the soil three times. Diffusate from each plant was combined, filter sterilised and stored at 4°C for a maximum of 1 month. Root diffusate agar plugs were made by melting 1.25% agar in ddH20, cooling to 50°C before mixing with 4 parts of root diffusate. The agar was then allowed to solidify at room temperature. 100 uNLP pre-treated M. incognita or G. pallida J2s were added by pipette to the centre of the plate. J2s which moved out of the 'dead zone' after 3 hours were counted and their location (+/-) scored. The distribution of J2s were used to create a chemotaxis index for each plate, which formed one replicate, a total of 10 replicates where completed for each uNLP treatment.
# [4] = tested on: G. pallida J2s; assay: as above; format: in vivo, Globodera pallida; details: for CI score: Fig 2A, J2s incubated in 100 μM uNLP for 24 h, tomato cv. Moneymaker root exudate vs water agar plugs, counted after 3 h, mean of 10 replicates of 100 J2s, control 0.4154; for effect on chemosensation (in words): 100 μM uNLP, 24 h, relative to controls
# Procedure: as §1, §4
# [5] = tested on: G. pallida J2s; assay: Serotonin-induced stylet thrusting assay; format: in vivo, Globodera pallida; details: for effect on serotonergic-induced stylet thrusting (in words): 100 μM uNLP, 24 h, 2 mM serotonin, relative to controls; for % Thrusting: Fig 2C, J2s incubated in 100 μM uNLP for 24 h, stylet thrusts in 2 mM serotonin, counted 1 min, normalised to control = 100%, mean, at least 30 J2s
# Procedure: as §1, §3
# [6] = tested on: G. pallida J2s; assay: Tomato invasion assay with uNLP pre-treated J2s; format: in vivo, Globodera pallida; details: Fig 2B; 500 J2s incubated in 100 μM uNLP for 24 h; single tomato seedling, 24 h at 18°C; normalised to negative control = 100%; mean
# Procedure: as §1, §2
sequence,measurement,setting,value
"AAENFDENNDIN [Mi-NLP-18d, predicted unamidated NLP of M. incognita, synthesised]",effect on host invasion (in words),[1],reduce host invasion rates
same,% Invasion,[1],34.21%
same,effect on serotonergic-induced stylet thrusting (in words),[2],agonise serotonergic stylet thrusting
same,% Thrusting,[2],147.70%
same,effect on chemosensation (in words),[3],no negative impact on J2 chemosensory ability
"AFDLFTGPGFTGMD [Gp-NLP-15h, predicted unamidated NLP of G. pallida, synthesised]",CI score,[4],-0.06784
"AFDRLDNSFMLL [Mi-NLP-8d, predicted unamidated NLP of M. incognita, synthesised]",% Invasion,[1],29.31%
"AFDRLDVSPFDFDAMT [Mi-NLP-8a, predicted unamidated NLP of M. incognita, synthesised]",% Thrusting,[2],126.10%
same,CI score,[3],0.018
"AFDSFAGNGFTGFD [Mi-NLP-15f, predicted unamidated NLP of M. incognita, synthesised]",effect on host invasion (in words),[1],does not impact on host invasion
same,effect on serotonergic-induced stylet thrusting (in words),[2],reduces stylet thrusting rate
same,% Thrusting,[2],75.18%
same,effect on chemosensation (in words),[3],inhibit chemosensation
same,CI score,[3],-0.05
"AFDSFGTPGFTGFD [Mi-NLP-15a, predicted unamidated NLP of M. incognita, synthesised]",effect on chemosensation (in words),[3],inhibit chemosensation
same,CI score,[3],-0.01067
"AFDSFTGPGFTGMD [Gp-NLP-15g, predicted unamidated NLP of G. pallida, synthesised]",CI score,[4],-0.2208
"AGARAFQRPDFDDASYEL [Mi-NLP-9a, predicted unamidated NLP of M. incognita, synthesised]",% Invasion,[1],45.59%
"AGGRLFRMVDLPDGDDFVPEG [Gp-NLP-21e, predicted unamidated NLP of G. pallida, synthesised]",CI score,[4],-0.3804
"ALDILDGDDFTGFS [Gp-NLP-14e, predicted unamidated NLP of G. pallida, synthesised]",CI score,[4],-0.0641
"ALDILESDDFGGF [Gp-NLP-14a, predicted unamidated NLP of G. pallida, synthesised]",CI score,[4],-0.3765
"ALDLMEGDGFGGGFD [Mi-NLP-14b, predicted unamidated NLP of M. incognita, synthesised]",CI score,[3],-0.1155
"ALDMLEGDDFIGMQ [Mi-NLP-14a, predicted unamidated NLP of M. incognita, synthesised]",effect on host invasion (in words),[1],does inhibit host invasion
same,% Invasion,[1],44.61%
same,effect on serotonergic-induced stylet thrusting (in words),[2],inhibition; also recorded: reduces stylet thrusting rate
same,% Thrusting,[2],61.60%
"ALDMMEGDDFIGL [Mi-NLP-14c, predicted unamidated NLP of M. incognita, synthesised]",effect on host invasion (in words),[1],reduce host invasion rates
same,% Invasion,[1],20.96%
same,effect on serotonergic-induced stylet thrusting (in words),[2],excitation; also recorded: agonise serotonergic stylet thrusting
same,% Thrusting,[2],134.70%
same,effect on chemosensation (in words),[3],no negative impact on J2 chemosensory ability
"FAPRQFAFA [Mi-NLP-18a, predicted unamidated NLP of M. incognita, synthesised]",effect on host invasion (in words),[1],inhibited
same,% Invasion,[1],25.88%
same,effect on chemosensation (in words),[3],inhibited
same,CI score,[3],-0.1353
"FNDDELSSLPFNFEYFPSLDTH [Mi-NLP-8b, predicted unamidated NLP of M. incognita, synthesised]",% Invasion,[1],61.38%
"GGARAFAKLEE [Mi-NLP-9c, predicted unamidated NLP of M. incognita, synthesised]",% Thrusting,[2],143.20%
"GGARAFFGDADGPFNSASYWAP [Gp-NLP-21h, predicted unamidated NLP of G. pallida, synthesised]",effect on chemosensation (in words),[4],inhibit chemosensation
same,CI score,[4],-0.01564
same,effect on serotonergic-induced stylet thrusting (in words),[5],modulating stylet thrusting rates
same,% Thrusting,[5],116.80%
"GGARAFNFFAPPDE [Gp-NLP-21a, predicted unamidated NLP of G. pallida, synthesised]",% Invasion,[6],178.90%
"GGARAFNGAEETLLNVANLA [Gp-NLP-21i, predicted unamidated NLP of G. pallida, synthesised]",effect on chemosensation (in words),[4],inhibit chemosensation
same,CI score,[4],-0.1733
same,effect on serotonergic-induced stylet thrusting (in words),[5],modulating stylet thrusting rates
same,% Thrusting,[5],117.70%
"GGARPFYGFFGGGEGTW [Mi-NLP-9e, predicted unamidated NLP of M. incognita, synthesised]",% Invasion,[1],48.68%
"GGARPFYGGGYMDGTW [Gp-NLP-21f, predicted unamidated NLP of G. pallida, synthesised]",CI score,[4],0.1456
"GGARTFLVGE [Mi-NLP-9b, predicted unamidated NLP of M. incognita, synthesised]",effect on chemosensation (in words),[3],inhibit chemosensation
same,CI score,[3],-0.07417
"GGTRAFNFFVSDALPSSYE [Gp-NLP-21c, predicted unamidated NLP of G. pallida, synthesised]",% Invasion,[6],14.07%
"GMRNFAFA [Mi-NLP-18b, predicted unamidated NLP of M. incognita, synthesised]",effect on host invasion (in words),[1],reduce host invasion rates
same,% Invasion,[1],47.81%
same,effect on serotonergic-induced stylet thrusting (in words),[2],agonise serotonergic stylet thrusting
same,% Thrusting,[2],146.60%
same,effect on chemosensation (in words),[3],no negative impact on J2 chemosensory ability
"SAFDSFVGRGFTGMD [Mi-NLP-15e, predicted unamidated NLP of M. incognita, synthesised]",% Invasion,[1],38.71%
same,effect on chemosensation (in words),[3],inhibit chemosensation
same,CI score,[3],-0.01767
"SFDSFTGSGFTGLD [Gp-NLP-15c, predicted unamidated NLP of G. pallida, synthesised]",effect on chemosensation (in words),[4],inhibit chemosensation
same,CI score,[4],-0.227
same,effect on serotonergic-induced stylet thrusting (in words),[5],modulating stylet thrusting rates
same,% Thrusting,[5],56.07%
"SFDSFVGKGFTGMD [Mi-NLP-15c, predicted unamidated NLP of M. incognita, synthesised]",effect on chemosensation (in words),[3],inhibit chemosensation
same,CI score,[3],-0.359
"SFDSLTGPGFTGLDT [Gp-NLP-15a, predicted unamidated NLP of G. pallida, synthesised]",CI score,[4],-0.1451
"SFGDYPFGSRTFAFA [Mi-NLP-18c, predicted unamidated NLP of M. incognita, synthesised]",% Thrusting,[2],175.50%
"SSLASGRIGFRPA [Mi-NLP-2, predicted unamidated NLP of M. incognita, synthesised]",% Thrusting,[2],164.40%
"SSQFGGENSFARFAFA [Mi-NLP-18e, predicted unamidated NLP of M. incognita, synthesised]",% Invasion,[1],46.49%
